In article PMC9609070 (ACS Omega, 2022):
Where two headings read alike, the source gives them in different places.

Assays:
[1] = cited from earlier work
[2] = neat water, x1=0.000, cited from earlier work
[3] = Preferential solvation analysis by inverse Kirkwood–Buff integrals; format: physicochemical; conditions: NMP+water, T=298.15 K
[4] = Hildebrand solubility parameter of meloxicam; format: physicochemical; conditions: expected from the solubility maximum in neat NMP; T=298.15 K
[5] = neat water, x1=0.000; Thm=303.0 K; cited from earlier work

- 100 δx1,3 (preferential solvation parameter by NMP) ([3]; x1=0.00): 0.00
- D (derivative of Gibbs energy of transfer vs x1) ([3]; x1=0.00): –71.31 kJ·mol^–1
- G1,3 (Kirkwood–Buff integral) ([3]; x1=0.00): –702.7 cm^3·mol^–1
- G2,3 (Kirkwood–Buff integral) ([3]; x1=0.00): –182.2 cm^3·mol^–1
- 100 δx1,3 (preferential solvation parameter by NMP) ([3]; x1=0.05): –3.21
- D (derivative of Gibbs energy of transfer vs x1) ([3]; x1=0.05): –64.29 kJ·mol^–1
- G1,3 (Kirkwood–Buff integral) ([3]; x1=0.05): –669.9 cm^3·mol^–1
- G2,3 (Kirkwood–Buff integral) ([3]; x1=0.05): –311.3 cm^3·mol^–1
- δx1,3 (preferential solvation parameter by NMP) ([3]; x1=0.05): −3.21 × 10^–2
- 100 δx1,3 (preferential solvation parameter by NMP) ([3]; x1=0.10): –3.19
- D (derivative of Gibbs energy of transfer vs x1) ([3]; x1=0.10): –57.63 kJ·mol^–1
- G1,3 (Kirkwood–Buff integral) ([3]; x1=0.10): –596.6 cm^3·mol^–1
- G2,3 (Kirkwood–Buff integral) ([3]; x1=0.10): –417.0 cm^3·mol^–1
- δx1,3 (preferential solvation parameter by NMP) ([3]; x1=0.10): −3.19 × 10^–2
- 100 δx1,3 (preferential solvation parameter by NMP) ([3]; x1=0.15): –0.64
- D (derivative of Gibbs energy of transfer vs x1) ([3]; x1=0.15): –51.33 kJ·mol^–1
- G1,3 (Kirkwood–Buff integral) ([3]; x1=0.15): –513.2 cm^3·mol^–1
- G2,3 (Kirkwood–Buff integral) ([3]; x1=0.15): –484.4 cm^3·mol^–1
- 100 δx1,3 (preferential solvation parameter by NMP) ([3]; x1=0.20): 1.92
- D (derivative of Gibbs energy of transfer vs x1) ([3]; x1=0.20): –45.42 kJ·mol^–1
- G1,3 (Kirkwood–Buff integral) ([3]; x1=0.20): –438.6 cm^3·mol^–1
- G2,3 (Kirkwood–Buff integral) ([3]; x1=0.20): –519.2 cm^3·mol^–1
- 100 δx1,3 (preferential solvation parameter by NMP) ([3]; x1=0.25): 3.70
- D (derivative of Gibbs energy of transfer vs x1) ([3]; x1=0.25): –39.89 kJ·mol^–1
- G1,3 (Kirkwood–Buff integral) ([3]; x1=0.25): –378.9 cm^3·mol^–1
- G2,3 (Kirkwood–Buff integral) ([3]; x1=0.25): –532.6 cm^3·mol^–1
- 100 δx1,3 (preferential solvation parameter by NMP) ([3]; x1=0.30): 4.75
- D (derivative of Gibbs energy of transfer vs x1) ([3]; x1=0.30): –34.76 kJ·mol^–1
- G1,3 (Kirkwood–Buff integral) ([3]; x1=0.30): –332.9 cm^3·mol^–1
- G2,3 (Kirkwood–Buff integral) ([3]; x1=0.30): –533.5 cm^3·mol^–1
- 100 δx1,3 (preferential solvation parameter by NMP) ([3]; x1=0.35): 5.27
- D (derivative of Gibbs energy of transfer vs x1) ([3]; x1=0.35): –30.04 kJ·mol^–1
- G1,3 (Kirkwood–Buff integral) ([3]; x1=0.35): –298.0 cm^3·mol^–1
- G2,3 (Kirkwood–Buff integral) ([3]; x1=0.35): –527.4 cm^3·mol^–1
- δx1,3 (preferential solvation parameter by NMP) ([3]; x1=0.40 (maximum)): 5.41 × 10^–2
- 100 δx1,3 (preferential solvation parameter by NMP) ([3]; x1=0.40): 5.41
- D (derivative of Gibbs energy of transfer vs x1) ([3]; x1=0.40): –25.73 kJ·mol^–1
- G1,3 (Kirkwood–Buff integral) ([3]; x1=0.40): –271.3 cm^3·mol^–1
- G2,3 (Kirkwood–Buff integral) ([3]; x1=0.40): –517.0 cm^3·mol^–1
- 100 δx1,3 (preferential solvation parameter by NMP) ([3]; x1=0.45): 5.28
- D (derivative of Gibbs energy of transfer vs x1) ([3]; x1=0.45): –21.85 kJ·mol^–1
- G1,3 (Kirkwood–Buff integral) ([3]; x1=0.45): –250.7 cm^3·mol^–1
- G2,3 (Kirkwood–Buff integral) ([3]; x1=0.45): –503.6 cm^3·mol^–1
- 100 δx1,3 (preferential solvation parameter by NMP) ([3]; x1=0.50): 4.96
- D (derivative of Gibbs energy of transfer vs x1) ([3]; x1=0.50): –18.40 kJ·mol^–1
- G1,3 (Kirkwood–Buff integral) ([3]; x1=0.50): –234.5 cm^3·mol^–1
- G2,3 (Kirkwood–Buff integral) ([3]; x1=0.50): –487.7 cm^3·mol^–1
- 100 δx1,3 (preferential solvation parameter by NMP) ([3]; x1=0.55): 4.49
- D (derivative of Gibbs energy of transfer vs x1) ([3]; x1=0.55): –15.39 kJ·mol^–1
- G1,3 (Kirkwood–Buff integral) ([3]; x1=0.55): –221.7 cm^3·mol^–1
- G2,3 (Kirkwood–Buff integral) ([3]; x1=0.55): –469.5 cm^3·mol^–1
- 100 δx1,3 (preferential solvation parameter by NMP) ([3]; x1=0.60): 3.93
- D (derivative of Gibbs energy of transfer vs x1) ([3]; x1=0.60): –12.84 kJ·mol^–1
- G1,3 (Kirkwood–Buff integral) ([3]; x1=0.60): –211.6 cm^3·mol^–1
- G2,3 (Kirkwood–Buff integral) ([3]; x1=0.60): –449.4 cm^3·mol^–1
- 100 δx1,3 (preferential solvation parameter by NMP) ([3]; x1=0.65): 3.34
- D (derivative of Gibbs energy of transfer vs x1) ([3]; x1=0.65): –10.75 kJ·mol^–1
- G1,3 (Kirkwood–Buff integral) ([3]; x1=0.65): –203.7 cm^3·mol^–1
- G2,3 (Kirkwood–Buff integral) ([3]; x1=0.65): –428.7 cm^3·mol^–1
- 100 δx1,3 (preferential solvation parameter by NMP) ([3]; x1=0.70): 2.76
- D (derivative of Gibbs energy of transfer vs x1) ([3]; x1=0.70): –9.13 kJ·mol^–1
- G1,3 (Kirkwood–Buff integral) ([3]; x1=0.70): –197.7 cm^3·mol^–1
- G2,3 (Kirkwood–Buff integral) ([3]; x1=0.70): –409.5 cm^3·mol^–1
- 100 δx1,3 (preferential solvation parameter by NMP) ([3]; x1=0.75): 2.24
- D (derivative of Gibbs energy of transfer vs x1) ([3]; x1=0.75): –7.99 kJ·mol^–1
- G1,3 (Kirkwood–Buff integral) ([3]; x1=0.75): –193.3 cm^3·mol^–1
- G2,3 (Kirkwood–Buff integral) ([3]; x1=0.75): –394.9 cm^3·mol^–1
- 100 δx1,3 (preferential solvation parameter by NMP) ([3]; x1=0.80): 1.81
- D (derivative of Gibbs energy of transfer vs x1) ([3]; x1=0.80): –7.33 kJ·mol^–1
- G1,3 (Kirkwood–Buff integral) ([3]; x1=0.80): –190.1 cm^3·mol^–1
- G2,3 (Kirkwood–Buff integral) ([3]; x1=0.80): –388.5 cm^3·mol^–1
- 100 δx1,3 (preferential solvation parameter by NMP) ([3]; x1=0.85): 1.44
- D (derivative of Gibbs energy of transfer vs x1) ([3]; x1=0.85): –7.18 kJ·mol^–1
- G1,3 (Kirkwood–Buff integral) ([3]; x1=0.85): –187.8 cm^3·mol^–1
- G2,3 (Kirkwood–Buff integral) ([3]; x1=0.85): –394.4 cm^3·mol^–1
- 100 δx1,3 (preferential solvation parameter by NMP) ([3]; x1=0.90): 1.10
- D (derivative of Gibbs energy of transfer vs x1) ([3]; x1=0.90): –7.54 kJ·mol^–1
- G1,3 (Kirkwood–Buff integral) ([3]; x1=0.90): –186.0 cm^3·mol^–1
- G2,3 (Kirkwood–Buff integral) ([3]; x1=0.90): –417.8 cm^3·mol^–1
- 100 δx1,3 (preferential solvation parameter by NMP) ([3]; x1=0.95): 0.69
- D (derivative of Gibbs energy of transfer vs x1) ([3]; x1=0.95): –8.41 kJ·mol^–1
- G1,3 (Kirkwood–Buff integral) ([3]; x1=0.95): –184.2 cm^3·mol^–1
- G2,3 (Kirkwood–Buff integral) ([3]; x1=0.95): –467.3 cm^3·mol^–1
- 100 δx1,3 (preferential solvation parameter by NMP) ([3]; x1=1.00): 0.00
- D (derivative of Gibbs energy of transfer vs x1) ([3]; x1=1.00): –9.81 kJ·mol^–1
- G1,3 (Kirkwood–Buff integral) ([3]; x1=1.00): –181.8 cm^3·mol^–1
- G2,3 (Kirkwood–Buff integral) ([3]; x1=1.00): –563.4 cm^3·mol^–1
- Hildebrand solubility parameter δ3, solubility-based [4]: lower than 23.6 MPa^1/2
SMILES: Cc1cnc(NC(=O)C2=C(O)c3ccccc3S(=O)(=O)N2C)s1 [Meloxicam, 4-hydroxy-2-methyl-N-(5-methyl-2-thiazolyl)-2H-1,2-benzothiazine-3-carboxamide-1,1-dioxide]
- Solubility-increasing effect ([1]; Carbitol as cosolvent): 1144 times
- Solubility-increasing effect ([1]; N,N-dimethylformamide (DMF) as cosolvent): 11,233 times
- Solubility-increasing effect ([1]; N-methylformamide (NMF) as cosolvent): 1399 times
- Solubility-increasing effect ([1]; dimethyl sulfoxide (DMSO) as cosolvent): 6956 times
- Activity coefficient (γ3) ([2]; T=293.15 K): 2396
- Activity coefficient (γ3) ([2]; T=298.15 K): 2708
- Activity coefficient (γ3) ([2]; T=303.15 K): 3055
- Activity coefficient (γ3) ([2]; T=308.15 K): 3376
- Activity coefficient (γ3) ([2]; T=313.15 K): 3755
- TΔsolnS° [5]: –26.66 kJ·mol^–1
- ΔsolnG° (apparent Gibbs energy of dissolution) [5]: 34.35 kJ·mol^–1
- ΔsolnH° (apparent enthalpy of dissolution) [5]: 7.69 kJ·mol^–1
- ΔsolnS° (apparent entropy of dissolution) [5]: –87.99 J·mol^–1·K^–1
